Source: paper PMC10669625 (Biomedicines, 2023)

Columns and labels:
[1] = Breath limonene by selected ion flow tube mass spectrometry (SIFT-MS), one 15 s exhalation; format: in vivo; details: unpublished data
[2] = Limonene exhalation kinetics in breath (Breath Biopsy, GC-MS) after ingestion of 100 mg limonene; details: for Cmax (ng) median [IQR]: 100 mg limonene oral, overnight fast
[3] = parameters: method as in PMID 20661827; details: cited from earlier work
[4] = parameters: method as in PMID 30845345; details: mice; oral and inhalation intake; within 30 min post administration; cited from earlier work
[5] = parameters: method as in PMID 9682146, PMID 9654110; details: after oral administration; cited from earlier work

C=C(C)[C@H]1CC=C(C)CC1 [limonene]
Breath levels of limonene before administration [1]: a few
Increase of breath limonene after administration vs before [1]: > 1000 fold
Breath levels of limonene after administration ([1]; up to): 5–10 PPM
Limonene spike in breath after administration compared to baseline ([2]; all subjects, 100 mg limonene): > 100 fold
Slope (rate of elimination) ([2]; breath, semi-logarithmic scale, control group): −0.027 [−0.031–−0.023]
AUC (0–90 min) median [IQR] ([2]; breath, cirrhosis group): 121,437 [57,921–202,733] ng × min/400 mL
Cmax (ng) median [IQR] ([2]; breath, cirrhosis group): 2077 [1051–4260] ng
AUC (0–90 min) median [IQR] ([2]; breath, control group): 27,107 [17,605–34,946] ng × min/400 mL
Cmax (ng) median [IQR] ([2]; breath, control group): 595 [361–903] ng
Cmax ([2]; case report subject DYL10297 (enrolled as control, suspected mild chronic liver disease), at 40 min): 2421 ng
Average increase in adipose tissue ([3]; after 4 weeks of continuous exposure): 44 fold
Accumulation in adipose tissue ([3]; after a single dose): no accumulation
Organ distribution [4]: majority of limonene found in the liver
Distribution volume [5]: greater than total body water
